# Measured values published in patent EP0337167B1, “4-Aryl-4-piperidine (or pyrrolidine or hexahydroazepine) carbinols and heterocyclic analogs thereof” (THE DU PONT MERCK PHARMACEUTICAL COMPANY, priority 1988, dated 1989).
# Like-named read-outs stand apart in the source and are kept apart here.
# Experiments:
# Male CF mice = test: Antagonism of tetrabenazine-induced depression (exploratory loss and ptosis) in mice; assay type: in vivo; settings: Mus musculus, po, 1 h, orally, one hour post-drug, tetrabenazine methane sulfonate 52 mg/kg i.p.
# Text: The prevention of tetrabenazine-induced sedation and depression in mice is a standard procedure used to detect and compare antidepressant compounds. The activity of antidepressant compounds in this procedure correlates well with human efficacy. (Barnett, et al., Int. J. Neuropharmac. 8: 73-79, 1969, and Vernier, et al., "The Pharmacodynamics of Amitriptyline" in Psychsomatic Medicine (Nodine & Moyer, editors) pp. 683-690, 1962).
# Male CF mice (Charles River Breeding Laboratories, Wilmingon, MA), fasted for 16-22 hours and weighing 18-25 g, were injected with randomized and coded does of test compounds, then challenged with 52 mg/kg i.p. tetrabenazine methane sulfonate 30 minutes prior to the specified observation time. The tetrabenazine methane sulfonate solution (5.2 mg/ml in distilled water) was prepared daily and stored in foil-wrapped amber bottles to limit degradation. […] Exploratory loss was defined as failing to move to the perimeter of a 12.7 cm (5 inch) (12.7 cm) circle within 15 seconds of being placed at the center of the circle. Ptosis was defined as both eyelids closed 50% or more compared to normal. Antidepressant activity was calculated as the percentage of mice failing to respond to the tetrabenazine challenge dose. […] Median effective does (ED₅₀'s) were estimated using the Moving Average method of Thompson (Bacteriological Rev. 11: 115-145, 1947).
# The data in Table 5 show ED₅₀ values for the compounds of the aforesaid examples.
# Male mice = test: Anorexia test from CNS screen (consumption of sweetened condensed milk spots); assay type: in vivo; settings: Mus musculus; fasted male mice, oral doses, 0.5 h after administration, 10 min access to milk; read-out: ED₅₀ for Anorexia
# Description: Male mice weighing 18-25 grams and fasted over-night for 17-21 h were used in these studies. At 0.5 h after administration of graded oral doses of compound prepared in aqueous Methocel® (methylcellulose, viscosity 100 mPa·s (CPS), grade A15C, Dow Chemical Co.) and dosed at 0.1 ml per 10 grams of body weight, each mouse was transferred to an individual, clear, Lucite® compartment (13.3 cm x 12.7 cm x 12.7 cm) with a wire mesh floor having 0.64 cm x 0.64 cm openings. Five compartments were linearly arranged in each cage unit. Inside each compartment was a section of a black Lucite® bar (13 cm x 1.2 cm x 1.2 cm), in the top of which were ten spot depressions (0.8 cm diameter), each containing 0.05 ml of 50% sweetened condensed milk. Ten (10) minutes later the mice were removed from to the compartments and the number of milk spots consumed by each mouse was counted. Fractions of spots consumed were also estimated and counted. Data were expressed as % decrease from control. ED₅₀ values were estimated using linear regression analysis.
# Male CF1 mice = test: Mouse antiphenylquinone writhing (PQW) test; assay type: in vivo; settings: Table 3; for ED50: Mus musculus, 0.5 h, phenylquinone 1.25 mg/kg i.p., observation beginning 30 min after injection of test compound
# Description: The anti-pheylquinone writhing (PQW) test modified from the methods of Siegmund et al. (Proc. Soc. Exp. Biol. Med. 95: 729-731, 1957) and Blumberg et al. (Proc. Exp. Biol. Med. 118: 763-767, 1965) was used to assess analgesia in mice. Male CF1 mice (Charles River Breeding Laboratories, Wilmington, MA), fasted for 16-22 h and weighing 18-23 g, were injected with randomized and coded doses of test compounds, then challenged with 1.25 mg/kg i.p. phenyl-p-benzoquinone (phenylquinone) 5 min prior to the specified observation time. The phenylquinone solution (0.1 mg/ml in 5% aqueous ethanol) was prepared daily and stored in foil-wrapped amber bottles to limit degradation. Mice were observed 10 min for the presence or absence of the characteristic abdominal constriction and stretching response beginning 30 min after injection of the test compound. Analgetic activity was calculated as the percentage of mice failing to respond to the phenylquinone challenge dose. […] Median effective doses (ED50's) and 95% confidence limits were determined numerically by the methods of Thompson (Bacteriological Rev. 11: 115-145, 1947), and Litchfield and Wilcoxon (J. Pharmacol. Exp. Ther. 96: 99.113, 1949).
# The data shown in Table show the PQW ED₅₀ values for the compounds of the aforesaid examples.
# Table 4 illustrates that the 3° carbinols within the scope of U.S. 4,485,109 have utility as analgesic agents.
# [1] = literature statement (A. L. Morrison et al., J.Chem. Soc., 1467, 1950); cited from earlier work
# [2] = read-out: Oral ED₅₀ (mg/kg) for Prevention of Ptosis
# [3] = po, p.o., read-out: Mouse PQW ED₅₀ (Mg/Kg) P.O
# [4] = sc, s.c., read-out: Mouse PQW ED₅₀ (Mg/Kg) S.C
SMILES,ED50 (Male CF mice; [2]) [mg/kg],ED50 (Male mice) [mg/kg],ED50 (Male CF1 mice; [3]) [mg/kg],ED50 (Male CF1 mice; [4]) [mg/kg],Mouse PQW remark (Male CF1 mice; remark beside S.C and P.O values),ED50 (Male CF mice; read-out: Oral ED₅₀ (mg/kg) for Prevention of Exploratory Loss) [mg/kg],analgesic activity compared with the parent ketones [1]
"CC(O)C1(c2ccc(C(F)(F)F)cc2)CCN(C)CC1 (stereo not drawn) [Example 16, 4(4'-Trifluoromethylphenyl)-α-1-dimethylpiperidinemethanol]",28,22,> 81,> 81,Inactive,–,–
"CC(O)C1(c2cccc(Cl)c2)CCN(C)CC1 (stereo not drawn) [Example 1, 4-(3'-Chlorophenyl)-α,1-dimethyl-4-piperidinemethanol]",0.74,20,19,8.1,–,0.92,–
"CC(O)C1(c2ccccc2)CCN(C)CC1 (stereo not shown) [Example 3, 4-phenyl-1-methyl-4-(1-hydroxyethyl)piperidine]",–,–,38,19,–,–,much less active as analgesics than the parent ketones
